{"source": "ChEMBL document CHEMBL1155703", "about": "“Sequences and antimycoplasmic properties of longibrachins LGB II and LGB III, two novel 20-residue peptaibols from Trichoderma longibrachiatum” (J Nat Prod, 2001)", "key": {"Spiroplasma citri": {"system": "Spiroplasma citri", "test": "Antimicrobial activity against Spiroplasma citri R8A2 after 2 hrs", "format": "functional", "details": "R8A2, 2 h"}, "Spiroplasma floricola": {"system": "Spiroplasma floricola", "test": "Antimicrobial activity against Spiroplasma floricola BNR1 after 2 hrs", "format": "functional", "details": "for MIC: Spiroplasma floricola, BNR1, 2 h"}, "[1]": {"system": "Mycoplasmoides gallisepticum", "test": "Antimicrobial activity against Mycoplasma gallisepticum S6 after 2 hrs", "format": "functional", "details": "for MIC: Mycoplasmoides gallisepticum, S6, 2 h"}, "[2]": {"test": "Bilayer membrane permeabilization assessed as lipid to peptide ratio allowing 50% leakage of entrapped carboxyfluorescein from egg phosphatidylcholine-cholesterol liposomes at 1.1 uM at 20 mins by spectrofluorimetry", "format": "physicochemical"}, "[3]": {"system": "Mycoplasma mycoides subsp. mycoides SC", "test": "Antimicrobial activity against Mycoplasma mycoides subsp. mycoides SC KH3J after 2 hrs", "format": "functional"}, "Acholeplasma laidlawii": {"system": "Acholeplasma laidlawii", "test": "Antimicrobial activity against Acholeplasma laidlawii PG-8A after 2 hrs", "format": "functional", "details": "for MIC: Acholeplasma laidlawii, PG-8A, 2 h"}, "Spiroplasma apis": {"system": "Spiroplasma apis", "test": "Antimicrobial activity against Spiroplasma apis B31 after 2 hrs", "format": "functional", "details": "for MIC: Spiroplasma apis, B31, 2 h"}, "[4]": {"test": "Bilayer membrane permeabilization assessed as lipid to peptide ratio allowing 50% leakage of entrapped carboxyfluorescein from egg phosphatidylcholine-cholesterol liposomes at 0.21 uM at 20 mins by spectrofluorimetry", "format": "physicochemical"}, "[5]": {"test": "Bilayer membrane permeabilization assessed as lipid to peptide ratio allowing 50% leakage of entrapped carboxyfluorescein from egg phosphatidylcholine-cholesterol liposomes at 0.49 uM at 20 mins by spectrofluorimetry", "format": "physicochemical"}, "[6]": {"test": "Bilayer membrane permeabilization assessed as lipid to peptide ratio allowing 50% leakage of entrapped carboxyfluorescein from egg phosphatidylcholine-cholesterol liposomes at 0.40 uM at 20 mins by spectrofluorimetry", "format": "physicochemical", "details": "0.4 µM"}, "[7]": {"test": "Bilayer membrane permeabilization assessed as lipid to peptide ratio allowing 50% leakage of entrapped carboxyfluorescein from egg phosphatidylcholine-cholesterol liposomes at 0.13 uM at 20 mins by spectrofluorimetry", "format": "physicochemical"}, "[8]": {"test": "Bilayer membrane permeabilization assessed as lipid to peptide ratio allowing 50% leakage of entrapped carboxyfluorescein from egg phosphatidylcholine-cholesterol liposomes at 0.36 uM at 20 mins by spectrofluorimetry", "format": "physicochemical"}}, "data": [{"smiles": "CC[C@@](C)(NC(=O)C(C)(C)NC(=O)[C@@H](NC(=O)[C@@H]1CCCN1C(=O)C(C)(C)NC(=O)[C@H](CC(C)C)NC(=O)CNC(=O)C(C)(C)NC(=O)[C@@H](NC(=O)C(C)(C)NC(=O)[C@H](CCC(N)=O)NC(=O)[C@H](C)NC(=O)C(C)(C)NC(=O)[C@H](C)NC(=O)C(C)(C)NC(=O)[C@H](C)NC(=O)C(C)(C)NC(C)=O)C(C)C)C(C)C)C(=O)N[C@@H](CCC(=O)O)C(=O)N[C@@H](CCC(N)=O)C(=O)N[C@H](CO)Cc1ccccc1", "values": [{"measurement": "MIC", "setting": "Spiroplasma citri", "value": 6.25, "unit": "µM"}, {"measurement": "MLC", "setting": "Spiroplasma floricola", "value": 3.12, "unit": "µM"}, {"measurement": "MIC", "setting": "Spiroplasma floricola", "value": 12.5, "unit": "µM"}, {"measurement": "MLC", "setting": "[1]", "value": 3.12, "unit": "µM"}, {"measurement": "MIC", "setting": "[1]", "value": 6.25, "unit": "µM"}, {"measurement": "Ratio", "setting": "[2]", "value": 540}, {"measurement": "MIC", "setting": "[3]", "value": 6.25, "unit": "µM"}, {"measurement": "MLC", "setting": "Acholeplasma laidlawii", "value": 3.12, "unit": "µM"}, {"measurement": "MIC", "setting": "Acholeplasma laidlawii", "value": 1.56, "unit": "µM"}, {"measurement": "MLC", "setting": "Spiroplasma apis", "value": 3.12, "unit": "µM"}, {"measurement": "MIC", "setting": "Spiroplasma apis", "value": 12.5, "unit": "µM"}]}, {"smiles": "CC[C@@](C)(NC(=O)C(C)(C)NC(=O)[C@@H](NC(=O)[C@@H]1CCCN1C(=O)C(C)(C)NC(=O)[C@H](CC(C)C)NC(=O)CNC(=O)C(C)(C)NC(=O)[C@@H](NC(=O)C(C)(C)NC(=O)[C@H](CCC(N)=O)NC(=O)[C@H](C)NC(=O)C(C)(C)NC(=O)[C@H](C)NC(=O)C(C)(C)NC(=O)[C@H](C)NC(=O)C(C)(C)NC(C)=O)C(C)C)C(C)C)C(=O)N[C@@H](CCC(N)=O)C(=O)N[C@@H](CCC(N)=O)C(=O)N[C@@H](CO)Cc1ccccc1", "values": [{"measurement": "Ratio", "setting": "[4]", "value": 2860}]}, {"smiles": "CC[C@@](C)(NC(=O)C(C)(C)NC(=O)[C@H](C)NC(=O)[C@H](CO)NC(=O)C(C)(C)NC(C)=O)C(=O)N[C@@H](CCC(N)=O)C(=O)NC(C)(C)C(=O)N[C@H](C(=O)NC(C)(C)C(=O)NCC(=O)N[C@@H](CC(C)C)C(=O)NC(C)(C)C(=O)N1CCC[C@H]1C(=O)N[C@@H](CC(C)C)C(=O)NC(C)(C)C(=O)NC(C)(C)C(=O)N[C@@H](CCC(N)=O)C(=O)N[C@H](CO)Cc1ccccc1)C(C)C", "note": "[listing 1 of 2 here]", "values": [{"measurement": "Ratio", "setting": "[5]", "value": 1220}]}, {"smiles": "CC[C@@](C)(NC(=O)C(C)(C)NC(=O)[C@H](C)NC(=O)[C@H](CO)NC(=O)C(C)(C)NC(C)=O)C(=O)N[C@@H](CCC(N)=O)C(=O)NC(C)(C)C(=O)N[C@H](C(=O)NC(C)(C)C(=O)NCC(=O)N[C@@H](CC(C)C)C(=O)NC(C)(C)C(=O)N1CCC[C@H]1C(=O)N[C@@H](CC(C)C)C(=O)NC(C)(C)C(=O)NC(C)(C)C(=O)N[C@@H](CCC(N)=O)C(=O)N[C@H](CO)Cc1ccccc1)C(C)C", "note": "[listing 2 of 2 here]", "values": [{"measurement": "MIC", "setting": "Spiroplasma citri", "value": 12.5, "unit": "µM"}, {"measurement": "MIC", "setting": "Spiroplasma floricola", "value": 25, "unit": "µM"}, {"measurement": "MIC", "setting": "[1]", "value": 6.25, "unit": "µM"}, {"measurement": "MIC", "setting": "[3]", "value": 12.5, "unit": "µM"}, {"measurement": "MIC", "setting": "Acholeplasma laidlawii", "value": 3.12, "unit": "µM"}, {"measurement": "MIC", "setting": "Spiroplasma apis", "value": 12.5, "unit": "µM"}]}, {"smiles": "CC[C@@](C)(NC(=O)C(C)(C)NC(=O)[C@@H](NC(=O)[C@@H]1CCCN1C(=O)C(C)(C)NC(=O)C(C)(C)NC(=O)CNC(=O)C(C)(C)NC(=O)C(C)(C)NC(=O)[C@H](CC(C)C)NC(=O)C(C)(C)NC(=O)[C@H](CCC(N)=O)NC(=O)C(C)(C)NC(=O)[C@H](C)NC(=O)C(C)(C)NC(=O)[C@H](C)NC(=O)C(C)(C)NC(C)=O)C(C)C)C(=O)N[C@@H](CCC(N)=O)C(=O)N[C@@H](CCC(N)=O)C(=O)N[C@H](CO)Cc1ccccc1", "values": [{"measurement": "Ratio", "setting": "[6]", "value": 1000}]}, {"smiles": "CC[C@@](C)(NC(=O)C(C)(C)NC(=O)[C@@H](NC(=O)[C@@H]1CCCN1C(=O)C(C)(C)NC(=O)[C@H](CC(C)C)NC(=O)CNC(=O)C(C)(C)NC(=O)[C@@H](NC(=O)C(C)(C)NC(=O)[C@H](CCC(N)=O)NC(=O)C(C)(C)NC(=O)C(C)(C)NC(=O)[C@H](C)NC(=O)C(C)(C)NC(=O)[C@H](C)NC(=O)C(C)(C)NC(C)=O)C(C)C)C(C)C)C(=O)N[C@@H](CCC(N)=O)C(=O)N[C@@H](CCC(N)=O)C(=O)N[C@H](CO)Cc1ccccc1", "values": [{"measurement": "MIC", "setting": "Spiroplasma citri", "value": 3.12, "unit": "µM"}, {"measurement": "MLC", "setting": "Spiroplasma floricola", "value": 3.12, "unit": "µM"}, {"measurement": "MIC", "setting": "Spiroplasma floricola", "value": 6.25, "unit": "µM"}, {"measurement": "MLC", "setting": "[1]", "value": 3.12, "unit": "µM"}, {"measurement": "MIC", "setting": "[1]", "value": 6.25, "unit": "µM"}, {"measurement": "Ratio", "setting": "[7]", "value": 4545}, {"measurement": "MIC", "setting": "[3]", "value": 6.25, "unit": "µM"}, {"measurement": "MLC", "setting": "Acholeplasma laidlawii", "value": 3.12, "unit": "µM"}, {"measurement": "MIC", "setting": "Acholeplasma laidlawii", "value": 0.78, "unit": "µM"}, {"measurement": "MLC", "setting": "Spiroplasma apis", "value": 3.12, "unit": "µM"}, {"measurement": "MIC", "setting": "Spiroplasma apis", "value": 6.25, "unit": "µM"}]}, {"smiles": "CC[C@@](C)(NC(=O)C(C)(C)NC(=O)[C@@H](NC(=O)[C@@H]1CCCN1C(=O)C(C)(C)NC(=O)[C@H](CC(C)C)NC(=O)CNC(=O)C(C)(C)NC(=O)[C@@H](NC(=O)C(C)(C)NC(=O)[C@H](CCC(N)=O)NC(=O)[C@H](C)NC(=O)C(C)(C)NC(=O)[C@H](C)NC(=O)C(C)(C)NC(=O)[C@H](C)NC(=O)C(C)(C)NC(C)=O)C(C)C)C(C)C)C(=O)N[C@@H](CCC(=O)O)C(=O)N[C@@H](CCC(N)=O)C(=O)N[C@H](COC)Cc1ccccc1", "values": [{"measurement": "Ratio", "setting": "[8]", "value": 2500}]}]}
